Test [1] relates to myocardial ischemia-reperfusion injury. The test can be described thus: Mouse myocardial ischemia-reperfusion (45 min LAD coronary artery occlusion, 24 h reperfusion), infarct size/area at risk. Type of test: in vivo, mice. As to the method:
Mice were injected with 5-aza-2′dC or saline, then subjected to ischemia. […] Both visual blanching and ST segment elevation on continuous ECG display confirmed myocardial ischemia. After 45 minutes, the PE-10 tubing was removed, permitting reperfusion. The sternotomy wound was closed in two layers with 4-0 Vicryl (Ethicon, Inc., Sommerville, N.J.) and the mouse extubated. 24 hours later, the mice were sacrificed, and infarcted and at-risk myocardial tissue was quantitated to determine infarct size.
The volume of viable myocardium remaining was determined by incubation of the tissue with 2% triphenyltetrazolium chloride: mice were euthanized by CO2 inhalation, the hearts were removed, and the aorta cannulated with a 21-gauge blunt-ended needle. Hearts were perfused with 3 ml of phosphate buffered saline solution, followed by 3 ml of 1% (2,3,5)-triphenyltetrazolium (TTC) at 37° C. The hearts were frozen at −80° C. for 20 minutes and cut into 1.5-mm slices. Each slice was individually weighed and photographed with incident light on both sides with a Leica DC200 CCD camera and MZ16 stereomicroscope (Leica Microsystems, Inc.) Infarct area was determined by visualizing TTC precipitate-excluded areas using NIH Image J software.
The volume of tissue at risk for ischemic injury (i.e. tissue lacking normal blood flow during the occlusion) was assessed by injection of the mice with FluoSphere 15-micron fluorescent microspheres (Molecular Probes/Invitrogen, Eugene, Oreg.) in the ascending aorta (clamped distally) after re-ligation of the left anterior descending coronary artery. The heart was sectioned, and fluorescence measured by cutting the tissue into 100 μm slices and determining the area of microsphere perfused cardiac tissue (perfused tissue) and the area excluded from microspheres (area at risk).
The volume of necrotic tissue was divided by the volume of tissue at risk for ischemic injury, to obtain the infarct size. Infarct size in the drug-treated groups was compared to the infarct size in the vehicle-treated group to determine the relative reduction in injury reported in the Table.
To ascertain the effect of DNMT inhibition on ischemic injury, mice were injected in the left ventricle with either the DNMT inhibitor 5-aza-2-deoxycytidine (5-aza-2′dC) or saline (negative control), then cardiac ischemia was induced by occlusion of the left anterior descending coronary artery for 45 minutes. The hearts were re-perfused for 24 hours, and the mice were sacrificed.
Mice were administered either the HDAC inhibitor TSA or vehicle (DMSO) alone, in the left ventricle. Ischemia was induced by occlusion of the left anterior descending coronary artery for 45 minutes, and mice were sacrificed following a 24-hour reperfusion period. The volume of infarcted and at-risk myocardial tissue was quantitated as described for Example 1.
To further characterize the effect of HDAC inhibitors and DNMT inhibitors on ischemic injury, a larger study was conducted, in which the HDAC inhibitor was added at several time points. In addition, a different HDAC inhibitor, Scriptaid (BioMol, Plymouth Meeting, Pa.), was tested, together with its corresponding negative control compound, Nullscript (Biomol). Ischemia was induced, and amounts of viable and necrotic tissue measured, as described for Example 1. A total of 217 mice were utilized in this Example, distributed as follows: Saline=38; DMSO=45; Nullscript=11; TSA-T1=31; TSA-T2=25; TSA-T3=15; Scriptaid=25; 5aza2′dC=27. […] In addition, HDAC inhibitors were effective when administered either before ischemia or 1 hour after ischemia.

The subject of test [2] is histone H3 acetylation (acetyl-Lys9 H3). The test can be described thus: Histone acetylation in ischemic myocardium, acid/urea gel and anti-acetyl H3 Western blot. Type of test: in vivo, mice. The following applies: pre-treatment (1 hour before ischemia). As for the experimental part: Cells were lysed in Triton X/deoxycholate buffer (20 millimolar [mM] HEPES, pH 7.2, 1% Triton X-100, 1% sodium deoxycholate, 100 mM sodium chloride, 50 mM sodium fluoride, 5 mM EDTA, 100 μM sodium molybdate, with protease inhibitors), and insoluble material was removed by a 15 minute (min) centrifugation in a microfuge, and the supernatant was subjected to 100,000×g, […] centrifugation. The pellet was extracted with 9 M urea, and the resulting pellet extracted with 0.3 M HCl.
40 centimeter (cm) acetic acid/urea gels were prepared as follows: The separating gel (0.75 millimeter [mm] thick) contained 15% acrylamide/0.2% methylenebisacrylamide, 4 molar (M) urea, and 5% acetic acid. The stacking gel contained 7.5% acrylamide/0.1% methylenebisacrylamide, 8 M urea, and 5% acetic acid. Proteins were solubilized in sample buffer (8 M urea, 5% acetic acid, 5% 2-mercaptoethanol, 25 milligram per milliliter (mg/ml) protamine sulfate, with methyl green) and loaded onto gels that had been pre-electrophoresed to a constant current and scavenged with […] cysteamine (Sigma-Aldrich). […]
To determine the effect of ischemia and HDAC inhibitors on histone acetylation, ischemia was induced in mice, as described in Example 1, and the degree of histone acetylation in myocardium was determined Histone acetylation was reduced in response to ischemia (FIG. 1).

[3] abbreviates: time of treatment not given in Table 3.
[4] abbreviates: T1: treatment 1 hour before ischemia.
Setting [5] is: T2: treatment 1 hour after ischemia.
[6] abbreviates: T3: treatment 12 hours after ischemia.

The source of these data is patent publication US9393222B2, “Use of HDAC and/or DNMT inhibitors for treatment of ischemic injury” (The Trustees of the University of Pennsylvania, priority 2004, dated 2016).

`Nc1ncn([C@H]2C[C@H](O)[C@@H](CO)O2)c(=O)n1` [5-aza-2′dC, 5-aza-2-deoxycytidine]: the “reduction of infarct size vs saline” value in test [1] (mice, injected in left ventricle before 45 min LAD occlusion, 24 h reperfusion) is on record as 69.6%. Also, in test [1] (mice, injected in left ventricle before 45 min LAD occlusion, 24 h reperfusion (Table 1)), the “Ratio of infarct size/area at risk” value stood at 10.3%. In test [1] (setting [3]), the “% decrease (w.r.t. DMSO)” value stood at 71.40% and the “Infarct size/area at risk (±SEM)” value was 10.3% ± 0.03%.

Take `O=C(CCCN1C(=O)c2cccc3cccc(c23)C1=O)NO` [Nullscript]: the “Infarct size/area at risk (±SEM)” value in test [1] (setting [3]) is 38.0% ± 0.56%.

In the case of `O=C(CCCCCN1C(=O)c2cccc3cccc(c23)C1=O)NO` [Scriptaid], in test [1] (setting [4]), the “% decrease (w.r.t. DMSO)” value was found to be 44.20% and the “Infarct size/area at risk (±SEM)” value was 21.2% ± 0.33%.

With `CC(/C=C/C(=O)NO)=C\[C@@H](C)C(=O)c1ccc(N(C)C)cc1` [TSA, trichostatin A], the “% decrease (w.r.t. DMSO)” value in test [1] (setting [4]) came out at 48.30%; in test [1] (setting [5]), 55.60%; in test [1] (setting [6]), 8.30%. The “Infarct size/area at risk (±SEM)” value was 18.6% ± 0.04% in test [1] (setting [4]), 16.0% ± 0.04% in test [1] (setting [5]) and 33.0% ± 0.05% in test [1] (setting [6]). In addition, the “reduction in infarct size vs DMSO vehicle” value in test [1] (mice, administered in left ventricle, 45 min LAD occlusion, 24 h reperfusion) is given as 48.3%. In addition, the “Ratio of infarct size/area at risk” value in test [1] (mice, administered in left ventricle, 45 min LAD occlusion, 24 h reperfusion (Table 2)) is 18.6%. Further, the “effect on ischemia-induced reduction in histone acetylation” value in test [2] is reported as “partially prevented the reduction in histone acetylation”.
